Experimental data: patent publication US11072601B2, “μ-opioid receptor agonist and preparation method therefor and use thereof in field of medicine” (SHANGHAI SYNERGY PHARMACEUTICAL SCIENCES CO., LTD., priority 2017, dated 2021)

Tests used:
Test in all cases: cell-based
[1] = target: T1, μ opioid receptor (MOR) (Homo sapiens, UniProt P35372); conditions: HEK293 stably expressing μ opioid receptor, FLIPR calcium
T1 construct: host or cells: HEK293

[2] = target: T2, cAMP pathway of MOR receptor (Homo sapiens, UniProt P35372); conditions: cAMP Hunter HEK293 cells, forskolin-induced cAMP; read-out: EC50 of cAMP levels affected by agonistic effect on MOR
T2 construct: host or cells: HEK293 (cAMP Hunter cell line)

[3] = target: T3, β-arrestin signaling pathway of MOR (Homo sapiens, UniProt P35372); conditions: PathHunter HEK293 cells, relative to endorphin MAX control
T3 construct: host or cells: HEK293 (PathHunter cell line)
T3 sequence (P35372 whole entry): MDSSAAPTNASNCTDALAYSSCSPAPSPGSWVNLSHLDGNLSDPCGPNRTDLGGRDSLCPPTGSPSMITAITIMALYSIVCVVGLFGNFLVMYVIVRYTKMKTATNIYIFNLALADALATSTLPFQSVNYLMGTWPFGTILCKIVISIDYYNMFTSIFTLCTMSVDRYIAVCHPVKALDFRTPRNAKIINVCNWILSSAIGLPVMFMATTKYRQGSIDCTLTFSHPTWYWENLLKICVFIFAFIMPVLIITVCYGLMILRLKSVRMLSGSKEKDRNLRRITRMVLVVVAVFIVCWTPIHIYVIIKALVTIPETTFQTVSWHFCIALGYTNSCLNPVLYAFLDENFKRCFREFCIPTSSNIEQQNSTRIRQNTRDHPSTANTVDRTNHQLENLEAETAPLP

T1 sequence (P35372 whole entry, species assumed): as the sequence (P35372 whole entry) above
T2 sequence (P35372 whole entry): as above

Compound	EC50 [1] [nM]	EC50 [2] [nM]	Emax [3] [%]
Cc1c(Cl)cccc1CNCCC1(c2ccccn2)CCOC2(CCCC2)C1 (stereo not drawn) [Example H04, (3-chloro-2-methylbenzyl)-[2-(9-(pyridin-2-yl)-6-oxaspiro[4.5]decan-9-yl)ethyl]amine]	6.05	4.36	6.12
FC(F)Oc1ccccc1CNCCC1(c2ccccn2)CCOC2(CCCC2)C1 (stereo not drawn) [Example H16, (2-difluoromethoxybenzyl)-[2-(9-(pyridin-2-yl)-6-oxaspiro[4.5]decan-9-yl)ethyl]amine]	9.06	1.36	3.12
FC(F)(F)Oc1ccc(Cl)cc1CNCCC1(c2ccccn2)CCOC2(CCCC2)C1 (stereo not drawn) [Example H17, (5-chloro-2-trifluoromethoxybenzyl)-[2-(9-(pyridin-2-yl)-6-oxaspiro[4.5]decan-9-yl)ethyl]amine]	8.68	1.89	1.78
FC(F)Oc1ccsc1CNCCC1(c2ccccn2)CCOC2(CCCC2)C1 (stereo not drawn) [Example H18, ((3-difluoromethoxythiophen-2-yl)methyl)-[2-(9-(pyridin-2-yl)-6-oxaspiro[4.5]decan-9-yl)ethyl]a mine]	7.32	2.35	0.48
Fc1ccc(C2(CCNCc3ccccc3OC(F)(F)F)CCOC3(CCCC3)C2)nc1 (stereo not drawn) [Example H21, {2-[9-(5-fluoro-pyridin-2-yl)-6-oxa-spiro[4.5]decan-9-yl]-ethyl}-(2-(trifluoromethoxy)-phenmethyl)-amine]	4.02	2.57	0.08
CNc1ccsc1C(=O)NCCC1(c2ccccn2)CCOC2(CCCC2)C1 (stereo not drawn) [Example H24, 3-methylamino-thiophene-2-carboxylic acid [2-(9-pyridin-2-yl-6-oxa-spiro[4.5]decan-9-yl)-ethyl]-amide]	10.7	3.74	2.76
